According to article PMC6499206, “Quantification of Volatile Metabolites Derived From Garlic (Allium sativum) in Human Urine” (Frontiers in Nutrition, 2019):

Test: Quantification of garlic-derived metabolites in human urine after ingestion of 3 g raw garlic (SIDA, SAFE, HRGC-MS / HRGC-GC-MS)
Assay type: in vivo
Details: 3 g raw garlic
Text: Human urine samples were obtained from 18 volunteers (age 22–38 years, mean 27 years; 11 females, 7 males); thereby, one volunteer conducted the whole experimental series twice. At the time of examination, volunteers reported no known illness that might have potentially influenced the metabolism or the excretion of urine. The test persons were instructed to avoid foods that were rich in sulfur-containing substances at the testing day as well as 2 days preceding the testing day, namely garlic, onion, wild garlic, chives, cabbage, and leek, and were only allowed to consume the garlic sample provided in the course of the experiments. Additionally, subjects were asked to keep records of the food (including food supplements) and beverages they consumed during these 3 testing days. Generally, the overall panelists' requirements were in accordance with our previous studies ([5], [16]).
On the sampling day, the outer garlic cloves of a whole garlic bulb were peeled and cut into ~3 mm cubes by using a garlic cutter (Genius GmbH, Limburg/Lahn, Germany). Subsequently these cubes were thoroughly mixed and aliquoted into 3 g portions. Three to four test persons conducted the experiment at the same day. Each test person was asked to ingest a garlic portion of 3 g. In total, eight consecutive urine samples were provided by each test person, comprising one whole urine set. The samples were collected in sterile brown glass bottles, with sampling times as follows: one sample was provided directly prior to garlic consumption. The series of the second to eighth sample was then obtained at about 0.5, 1, 2, 4, 6, 8, and 24 h after garlic consumption, respectively. Between the first urine sample (prior to garlic consumption) and the seventh urine sample (8 h after garlic consumption) test persons only spent urine at the specific time points mentioned before. Another sample was provided at the next morning (24 h after garlic consumption). Between the samples provided 8 and 24 h after garlic consumption no urine was collected. All samples were immediately placed into a −80°C freezer and were kept frozen until further analysis.
The samples of each set were termed according to their sampling time. The following list provides the time intervals that are related to the respective sample name: • - pre: before garlic consumption • - 0.5 h post: 0.4–0.8 h after garlic consumption • - 1 h post: 0.9–1.3 h after garlic consumption • - 2 h post: 1.8 h−2.2 h after garlic consumption • - 4 h post: 3.8–4.4 h after garlic consumption • - 6 h post: 5.8–6.4 h after garlic consumption • - 8 h post: 7.8–8.4 h after garlic consumption • - 24 h post: 23.8–25.6 h after garlic consumption
A creatinine kit (Labor+Technik Eberhard Lehmann GmbH, Berlin, Germany) was used to determine the creatinine content in each urine sample. The determination principle of this kit is based on the reaction of creatinine with picric acid under basic conditions (Jaffé reaction). The formed complex was detected photometrically at a wavelength of 492 nm.
For quantification purposes, the deuterated standards ^2H3-AMS, ^2H3-AMSO, and ^2H3-AMSO2 were added to the sample and stirred for 10 min. Subsequently, DCM was added in a ratio of 1:2 (DCM/human urine; v/v) and this solution was stirred for further 30 min at room temperature. To isolate the volatile fraction from the urine samples we then applied SAFE-distillation ([17]), thereby distilling the respective samples at 50°C. After completion of the distillation process, 10 mL of DCM were applied in each case to rinse the SAFE apparatus and to ensure complete transition of the volatile compounds. This process was repeated with another 10 mL of DCM. After thawing, the obtained aqueous distillate phase was extracted three times with 25 mL DCM. The organic phases were combined, dried over anhydrous Na2SO4 and concentrated to a total volume of 100 μL by means of Vigreux distillation and subsequent micro-distillation at 50°C. […]

C=CCSC [AMS, allyl methyl sulfide]
metabolite concentration in urine, creatinine-normalized (U IV, 6 h post (6.08 h)): 0.04 µg/mmol creatinine | metabolite concentration in urine (U IV, 8 h post (8.05 h)): 0.3 µg/kg | metabolite concentration in urine, creatinine-normalized (U IV, 8 h post (8.05 h)): 0.1 µg/mmol creatinine | metabolite concentration in urine (U IV, 24 h post (24.03 h)): 0.5 µg/kg | metabolite concentration in urine, creatinine-normalized (U IV, 24 h post (24.03 h)): 0.1 µg/mmol creatinine | metabolite concentration in urine (U IV, pre (-0.05 h)): < LOD^1 | metabolite concentration in urine, creatinine-normalized (U IV, pre (-0.05 h)): < LOD^1 | metabolite concentration in urine (U IX, 0.5 h post (0.67 h)): 1.0 µg/kg | metabolite concentration in urine, creatinine-normalized (U IX, 0.5 h post (0.67 h)): 0.9 µg/mmol creatinine | metabolite concentration in urine (U IX, 1 h post (1.17 h)): 1.5 µg/kg | metabolite concentration in urine, creatinine-normalized (U IX, 1 h post (1.17 h)): 1.4 µg/mmol creatinine | metabolite concentration in urine (U IX, 2 h post (1.83 h)): 1.4 µg/kg | metabolite concentration in urine, creatinine-normalized (U IX, 2 h post (1.83 h)): 1.2 µg/mmol creatinine | metabolite concentration in urine (U IX, 4 h post (4.17 h)): 2.5 µg/kg | metabolite concentration in urine, creatinine-normalized (U IX, 4 h post (4.17 h)): 0.5 µg/mmol creatinine | metabolite concentration in urine (U IX, 6 h post (6.08 h)): 1.7 µg/kg | metabolite concentration in urine, creatinine-normalized (U IX, 6 h post (6.08 h)): 0.5 µg/mmol creatinine | metabolite concentration in urine (U IX, 8 h post (8.08 h)): 0.8 µg/kg | metabolite concentration in urine, creatinine-normalized (U IX, 8 h post (8.08 h)): 0.1 µg/mmol creatinine | metabolite concentration in urine (U IX, 24 h post (24.00 h)): traces^1 | metabolite concentration in urine, creatinine-normalized (U IX, 24 h post (24.00 h)): traces^1 | metabolite concentration in urine (U IX, pre (-0.08 h)): < LOD^1 | metabolite concentration in urine, creatinine-normalized (U IX, pre (-0.08 h)): < LOD^1 | metabolite concentration in urine (U V, 0.5 h post (0.50 h)): 0.5 µg/kg | metabolite concentration in urine, creatinine-normalized (U V, 0.5 h post (0.50 h)): 0.7 µg/mmol creatinine | metabolite concentration in urine (U V, 1 h post (1.00 h)): 0.7 µg/kg | metabolite concentration in urine, creatinine-normalized (U V, 1 h post (1.00 h)): 0.8 µg/mmol creatinine | metabolite concentration in urine (U V, 2 h post (2.00 h)): 0.7 µg/kg | metabolite concentration in urine, creatinine-normalized (U V, 2 h post (2.00 h)): 0.8 µg/mmol creatinine | metabolite concentration in urine (U V, 4 h post (4.00 h)): 0.9 µg/kg | metabolite concentration in urine, creatinine-normalized (U V, 4 h post (4.00 h)): 0.3 µg/mmol creatinine | metabolite concentration in urine (U V, 6 h post (6.00 h)): 0.7 µg/kg | metabolite concentration in urine, creatinine-normalized (U V, 6 h post (6.00 h)): 0.1 µg/mmol creatinine | metabolite concentration in urine (U V, 8 h post (8.00 h)): 0.3 µg/kg | metabolite concentration in urine, creatinine-normalized (U V, 8 h post (8.00 h)): 0.2 µg/mmol creatinine | metabolite concentration in urine (U V, 24 h post (24.00 h)): traces^1 | metabolite concentration in urine, creatinine-normalized (U V, 24 h post (24.00 h)): traces^1 | metabolite concentration in urine (U V, pre (-0.05 h)): < LOD^1 | metabolite concentration in urine, creatinine-normalized (U V, pre (-0.05 h)): < LOD^1 | metabolite concentration in urine (U VI, 0.5 h post (0.50 h)): 1.1 µg/kg | metabolite concentration in urine, creatinine-normalized (U VI, 0.5 h post (0.50 h)): 0.5 µg/mmol creatinine | metabolite concentration in urine (U VI, 1 h post (1.00 h)): 0.7 µg/kg | metabolite concentration in urine, creatinine-normalized (U VI, 1 h post (1.00 h)): 0.6 µg/mmol creatinine | metabolite concentration in urine (U VI, 2 h post (2.00 h)): 1.0 µg/kg | metabolite concentration in urine, creatinine-normalized (U VI, 2 h post (2.00 h)): 0.9 µg/mmol creatinine | metabolite concentration in urine (U VI, 4 h post (4.00 h)): 1.2 µg/kg | metabolite concentration in urine, creatinine-normalized (U VI, 4 h post (4.00 h)): 0.3 µg/mmol creatinine | metabolite concentration in urine (U VI, 6 h post (6.00 h)): 0.9 µg/kg | metabolite concentration in urine, creatinine-normalized (U VI, 6 h post (6.00 h)): 0.2 µg/mmol creatinine | metabolite concentration in urine (U VI, 8 h post (8.00 h)): 0.5 µg/kg | metabolite concentration in urine, creatinine-normalized (U VI, 8 h post (8.00 h)): 0.1 µg/mmol creatinine | metabolite concentration in urine (U VI, 24 h post (24.17 h)): traces^1 | metabolite concentration in urine, creatinine-normalized (U VI, 24 h post (24.17 h)): traces^1 | metabolite concentration in urine (U VI, pre (-0.05 h)): < LOD^1 | metabolite concentration in urine, creatinine-normalized (U VI, pre (-0.05 h)): < LOD^1 | metabolite concentration in urine (U VII, 0.5 h post (0.50 h)): 0.6 µg/kg | metabolite concentration in urine, creatinine-normalized (U VII, 0.5 h post (0.50 h)): 0.5 µg/mmol creatinine | metabolite concentration in urine (U VII, 1 h post (1.08 h)): 1.3 µg/kg
